Assay results as given in paper PMC12461739, “Multi-targeted azacoumarin–cyanocinnamate hybrids induce G2/M arrest and apoptosis via tubulin, and COX-2/VEGFR modulation: insights from in vitro mechanistic basis and in vivo validation” (RSC Medicinal Chemistry, 2025).
Where “and” joins values, the source holds several entries; their conditions need not be identical. Equal values may be shown once. Read-outs that look alike come from different tables or passages of the source.

How the values were obtained:
[1] = FRAP (ferric reducing antioxidant power) assay; conditions: 37 °C, 60 min
Protocol: The resulting Fe^2+ forms a colored complex with the FRAP chromogenic probe, which can be quantitatively measured. The reaction mixture was prepared by combining FRAP assay buffer, FRAP probe, and FeCl3 solution as per the manufacturer's protocol. […] Absorbance was measured at 594 nm using a microplate reader after incubation at 37 °C for 60 minutes. Antioxidant activity was determined by comparing the absorbance of the samples to a standard curve generated using known concentrations of the ferrous standard provided in the kit.

[2] = test system: MCF-7 cells; experiment: Cell cycle analysis (PI flow cytometry); type: cell-based, human; conditions: MCF-7, 7.653 μM (IC50), 24 h
Protocol: Cell cycle progression was examined using a propidium iodide (PI)-based staining protocol, adapted from standard manufacturer instructions and previously described methods. MCF-7 cells were seeded at a density of 2 × 10^5 cells per well in DMEM and incubated overnight under standard conditions (37 °C, 5% CO2). […] A DMSO-treated group served as the vehicle control. After treatment, cells were collected, washed twice with cold phosphate-buffered saline (PBS), and centrifuged at 2000 rpm for 5 minutes. The pellets were fixed in pre-chilled 70% ethanol and stored at −20 °C for 2 hours. After fixation, cells were washed again with PBS, centrifuged, and resuspended in PI/RNase staining solution. Samples were incubated for 30 minutes at 37 °C in the dark to allow for RNA degradation and proper DNA staining. Flow cytometric analysis was conducted using a BD FACSCalibur™ system (BD Biosciences, USA). PI fluorescence was detected using a 488 nm excitation laser and collected through the FL2 channel (585 nm bandpass filter). Cell cycle phase distribution (G0/G1, S, and G2/M) was analyzed using dedicated software.

[3] = test system: MDA-MB 231 cells; experiment: MTT antiproliferative assay, MDA-MB 231; type: cell-based, human; conditions: Homo sapiens, MDA-MB-231, 48 h, MTT, 48 h treatment; read-out: IC50, antiproliferative activity toward MDA-MB 231
Protocol: (§1) The cytotoxic effects of the synthesized compounds were evaluated using the MTT assay. MCF-7, MDA-MB 231 (human breast cancer), and MCF-10A (non-tumorigenic breast epithelial) cells were seeded (1–3 × 10^4 cells per well) and incubated for 24 hours at 37 °C in a humidified atmosphere containing 5% CO2.[74] Following incubation, cells were treated with serial dilutions of the test compounds prepared in DMSO. The final concentration of DMSO in all wells, including controls, was maintained below 0.5% v/v to avoid solvent-related cytotoxicity. Doxorubicin was used as a positive control for comparison of antiproliferative activity. Following 48 hours of treatment, the culture medium was gently removed, and each well received 20 μL of MTT reagent (5 mg mL^−1 in phosphate-buffered saline). The plates were incubated at 37 °C for 4 hours to facilitate the enzymatic reduction of MTT into formazan by metabolically active cells. After incubation, the solution was discarded, and 100 μL of dimethyl sulfoxide was added. The absorbance of each well was measured at 570 nm using a microplate spectrophotometer. Cell viability was determined by comparing absorbance values to those of the untreated controls and expressed as a percentage. GraphPad Prism software was used to plot dose–response curves and calculate IC50 values.

[4] = test system: MCF-7 cells; experiment: MTT antiproliferative assay, MCF-7; type: cell-based, human; conditions: MTT, 48 h treatment, read-out: IC50, antiproliferative activity toward MCF-7
Protocol: as §1

[5] = test system: TNF-α; experiment: Serum TNF-α ELISA
Protocol: All animals were maintained under conventional laboratory conditions, including a controlled temperature of 22 ± 2 °C and a 12 hour light/dark photoperiod, with continuous access to standard pellet chow and water. On day 11, following the final treatment, ascitic fluid was collected from the peritoneal cavity using heparinized syringes for EAC cell viability and count analysis. Blood samples were collected under light ether anesthesia via the retro-orbital venous plexus and centrifuged at 3000 rpm for 10 minutes. The resulting serum was separated and stored at −20 °C for biochemical analysis.
Briefly, 96-well microplates pre-coated with a TNF-α-specific capture antibody were loaded with standards and serum samples, followed by incubation to allow antigen binding. After washing, a biotin-labeled detection antibody was added, followed by an avidin–HRP conjugate to amplify the signal. The enzymatic reaction was developed using a TMB substrate and stopped with an acidic solution. Absorbance was measured at 450 nm using the ELISA microplate reader. TNF-α concentrations were calculated by plotting sample absorbance values against a standard curve and expressed in pg mL^−1. All measurements were performed in triplicate, and data were presented as mean ± SD.

[6] = test system: MCF-7 cells; experiment: Annexin V-FITC/PI apoptosis assay; type: cell-based, human; conditions: MCF-7, IC50 concentration, 24 h
Protocol: Apoptotic cell death was quantified using annexin V-FITC and propidium iodide (PI) staining, in accordance with the manufacturer's instructions (BioVision, USA; Cat No. K101-25), with minor protocol adjustments. MCF-7 cells were plated at a density of 2 × 10^5 cells per well in DMEM-containing supplements and incubated overnight at 37 °C in a humidified atmosphere with 5% CO2. […] After treatment, cells were harvested using 0.25% trypsin–EDTA, rinsed twice with ice-cold phosphate-buffered saline (PBS), and resuspended in 500 μL of annexin V binding buffer. To each sample, 5 μL of annexin V-FITC and 5 μL of propidium iodide (PI) were then added for staining. The staining mixture was incubated in the dark for 15 minutes at room temperature. Samples were analyzed on a BD FACSCalibur™ flow cytometer (BD Biosciences, USA). Fluorescence was detected using the FL1 channel (530 nm) for annexin V-FITC and the FL2 channel (585 nm) for PI. Quadrant gating was used to distinguish between viable cells (annexin V^−/PI^−), early apoptotic cells (annexin V^+/PI^−), late apoptotic cells (annexin V^+/PI^+), and necrotic cells (annexin V^−/PI^+).

[7] = test system: Bax; experiment: qRT-PCR gene expression, Bax; type: cell-based, human; conditions: MCF-7, 7.653 μM, 24 h
Protocol: (§2) Untreated cells served as negative controls. RNA concentration and purity were verified spectrophotometrically prior to cDNA synthesis. Complementary DNA (cDNA) was synthesized from purified RNA using the RT^2 First Strand Kit (Qiagen, Valencia, CA, USA) following the supplied protocol. Quantitative real-time PCR (qRT-PCR) was performed on a Corbett Rotor-Gene 6000 system (Qiagen, USA) using the RT^2 SYBR® Green ROX™ FAST Master Mix (Qiagen). Each 25 μL reaction contained 12.5 μL of master mix, 1 μL of gene-specific primers (RT^2 qPCR Primer Assays, Qiagen), 1 μL of cDNA template, and 10.5 μL of RNase-free water. Gene-specific primers were selected using the PrimerBank database for BAX, BCL2, and TP53, along with GAPDH as the endogenous control (Table S3). Thermal cycling conditions were set as follows: initial enzyme activation at 95 °C for 10 minutes, followed by 40 cycles of denaturation at 95 °C for 15 seconds, and annealing at 60 °C for 30 seconds. Amplification specificity was confirmed by melting curve analysis. Gene expression levels were normalized to GAPDH mRNA as the internal reference, and relative quantification was performed using the ΔΔCt method. […] Statistical analysis was performed using GraphPad Prism software, with p < 0.05 considered statistically significant.[79]

[8] = Liver histopathology (H&E)
Description: Additionally, liver and kidney tissues were excised from each animal for further evaluation. […] The second portion was fixed in 10% neutral buffered formalin for histopathological examination to assess tissue morphology and damage.[96,97]
Liver and kidney tissues were collected from all experimental groups at the end of the study and immediately fixed in 10% neutral buffered formalin. After fixation, the samples were dehydrated, embedded in paraffin, and sectioned at a thickness of 5 μm using a rotary microtome. […] Histopathological examination of renal tissue focused on identifying acute tubular injury (ATI), characterized by tubular epithelial cell flattening, necrosis, apical vacuolization, and loss of the brush border. These features were assessed using a semi-quantitative scoring system.[110] Hepatic tissue sections were evaluated for the severity of hepatocellular injury using a modified Brunt grading system, which includes assessment of hepatocyte ballooning, necrosis, inflammation, and other degenerative changes.

[9] = test system: Bcl-2; experiment: qRT-PCR gene expression, Bcl-2; type: cell-based, human; conditions: MCF-7, 7.653 μM, 24 h
Protocol: as §2

## CCOC(=O)/C(C#N)=C/c1ccc(Oc2c(C)c3cc(Br)c(O)c(Br)c3[nH]c2=O)cc1 [Compound 7, ethyl (E)-2-cyano-3-(4-((6,8-dibromo-7-hydroxy-4-methyl-2-oxo-1,2-dihydroquinolin-3-yl)oxy)phenyl)acrylate]
[1]
  IC50: 145 µM
[2]; control 7.57%
  cells in G2/M phase: 36.21%
[2]; control 21.08%
  S-phase cells: 15.75%
[3]
  IC50: 9.7 ± 1.15 µM
[4]; Homo sapiens, MCF7, 48 h
  IC50: 7.65 µM
[4]
  IC50: 7.65 µM and 7.6 µM
[5]; EAC + compound 7 (10 mg kg^−1 i.p.), EAC control 156.80 ± 4.71
  serum TNF-α: 56.42 ± 2.01 pg/mL
[5]; compound 7-only control group, no EAC
  serum TNF-α: 29.37 ± 1.33 pg/mL
[6]; control 0.12%
  late apoptotic cells: 8.41%
[6]; control 0.37%
  early apoptotic cells: 15.36%
[6]; control 2.22%
  necrotic cell population: 3.57%
[7]
  Bax expression relative to untreated control: 5.22 fold
[8]; EAC + compound 7, EAC group approximately 45%
  hepatocyte hydropic degeneration: around 15%
[8]; EAC + compound 7, EAC group grade 3
  portal inflammation grade: 2
[8]; EAC + compound 7, EAC group score 7, untreated 0
  liver pathology score: 3
[8]; compound 7 only, no EAC
  lobular inflammation grade: 1
  portal inflammation grade: 2
[8]; compound 7 only, no EAC, untreated 0
  liver pathology score: 4
[9]
  Bcl-2 expression relative to untreated control: 0.312 fold
